Experimental data as given in US8227452B2, “Use of a steroid prodrug for the treatment of disease of the posterior segment of the eye” (Novagali Pharma SA, priority 2006, dated 2012).
Read-outs that look alike come from different tables or passages of the source.

Assays:
[1] = cited from earlier work
[2] = rabbit, in vivo
Source text: Analytes and internal standard (roxithromycine) were extracted from the tissues using acetonitrile and separated by reverse phase liquid chromatography with a C8 column and a gradient mobile phase. […] The unweighed linear model was applied.

[3] = 0.59 mg intravitreal implant, patients with diabetic macular edema; cited from earlier work
[4] = high-dose intraocular, long-term follow-up; cited from earlier work
[5] = implantation of 0.59 mg or 2.1 mg, noninfectious posterior uveitis patients; cited from earlier work
[6] = subtenon administration; cited from earlier work
[7] = single oral administration of 7.5 mg dexamethasone

C[C@@H]1C[C@H]2[C@@H]3CCC4=CC(=O)C=C[C@]4(C)[C@@]3(F)[C@@H](O)C[C@]2(C)[C@@]1(O)C(=O)CO [D, dexamethasone]
Dexamethasone penetration into the vitreous humour ([1]; repeated topical application: 1 drop of 0.1% dexamethasone phosphate drops hourly for 10 hours): less than 2 ng/ml | Serum level [1, 7]: 60 ng/mL | Vitreous level [1, 7]: 5 ng/mL | Concentration in choroid, mean ([2]; 1 days): 12 nmol/g | Concentration in retina, mean ([2]; 1 days): 7 nmol/g | Concentration in choroid, mean ([2]; 7 days): 12 nmol/g | Concentration in retina, mean ([2]; 7 days): 11 nmol/g | Concentration in choroid, mean ([2]; 14 days): 9 nmol/g | Concentration in retina, mean ([2]; 14 days): 6 nmol/g | Concentration in choroid, mean ([2]; 28 days): 4 nmol/g | Concentration in retina, mean ([2]; 28 days): 4 nmol/g | Concentration in aqueous humor, mean ([2]; 60 days): 0 nmol/g | Concentration in choroid, mean ([2]; 60 days): 3 nmol/g | Concentration in retina, mean ([2]; 60 days): 2 nmol/g

CC1(C)O[C@@H]2C[C@H]3[C@@H]4C[C@H](F)C5=CC(=O)C=C[C@]5(C)[C@@]4(F)[C@@H](O)C[C@]3(C)[C@]2(C(=O)CO)O1 [fluocinolone acetonide]
Serious cataract progression [3]: 43.1% | Serious intraocular pressure rise [3]: 8.6% | Eyes developing elevated IOP [4]: 100% | Eyes requiring implant removal [4]: approximately 60% | Eyes showing nonischemic central retinal vein occlusion [4]: 30% | Augmentation of the need of IOP lowering agents [5]: 5 fold

CC1(C)O[C@@H]2C[C@H]3[C@@H]4CCC5=CC(=O)C=C[C@]5(C)[C@@]4(F)[C@@H](O)C[C@]3(C)[C@]2(C(=O)CO)O1 [triamcinolone acetonide]
Patients with intraocular pressure rise [6]: 21%
